The test system of this test is C57BL/6J mice. Description: Acute single dose 120-min time-course experiment, in vivo glucose reduction in C57BL/6J mice. Further details: unit not given here. The settings on record: male C57BL/6J mice, Mean ± SEM. The protocol:
All the animal experiments were carried out according to the internationally valid guidelines following approval by the ‘Zydus Research Center animal ethical committee’. […] Two days prior to the study, the animals were randomised and divided into 5 groups (n=6), based upon their fed glucose levels. On the day of experiment, food was withdrawn from all the cages, water was given ad-libitum and were kept for overnight fasting. Vehicle (normal saline)/test/standard compounds were administered intraperitoneally (i.p.) or orally, on a body weight basis. […] Blood samples were centrifuged and the separated serum was immediately subjected for the glucose estimation. Serum for insulin estimation was stored at −70° C. until used for the insulin estimation. The glucose estimation was carried out with DPEC-GOD/POD method (Ranbaxy Fine Chemicals Limited, Diagnostic division, India), using Spectramax-190, in 96-microwell plate reader (Molecular devices Corporation, Sunnyvale, Calif.). […] The AUC and BCAUC obtained from graphs were analyzed for one way ANOVA, followed by Dunnett's post test, using Graph Pad prism software. Furthermore, the insulin estimation was carried out using rat/mouse insulin ELISA kit (Linco research, Mo. USA).

This is an account of results in US8841413B2, “Antidiabetic compounds” (Cadila Healthcare Limited, priority 2006, dated 2014).

As for `CCc1cc(OC)ccc1-c1ccc(CC(NC(=O)[C@H](CC(=O)O)NC(=O)[C@H](CO)NC(=O)[C@@H](NC(=O)C(C)(Cc2ccccc2F)NC(=O)[C@@H](NC(=O)CNC(=O)[C@H](CCC(N)=O)NC(=O)C2(NC(=O)[C@@H](N)Cc3c[nH]cn3)CC2)[C@@H](C)O)[C@@H](C)O)C(=O)NC(Cc2ccc(-c3ccccc3C)cc2)C(N)=O)cc1` (single isomer, unassigned) [Seq. ID. No. 33, H-(ACP)-QGT-(α-Me-2F-Phe)-TSD-Bip(OMe)-Bip(2Me)], the blood glucose level is reported as 181 ± 2.5 (10 nM/kg, i.p, 0 min); 111 ± 3.4 (10 nM/kg, i.p, 30 min); 113 ± 3.1 (10 nM/kg, i.p, 60 min); 110 ± 1.8 (10 nM/kg, i.p, 120 min); 182 ± 2.5 (2 μM/kg, oral, 0 min); 116 ± 3.1 (2 μM/kg, oral, 30 min). Further, the blood glucose level came out at 113 ± 4.1 (2 μM/kg, oral, 60 min) and 110 ± 2.8 (2 μM/kg, oral, 120 min).

As to `CCc1cc(OC)ccc1-c1ccc(CC(NC(=O)[C@H](CC(=O)O)NC(=O)[C@H](CO)NC(=O)[C@@H](NC(=O)C(C)(Cc2ccccc2F)NC(=O)[C@@H](NC(=O)CNC(=O)[C@H](CCC(N)=O)NC(=O)C2(NC(=O)[C@@H](N)Cc3c[nH]cn3)CC2)[C@@H](C)O)[C@@H](C)O)C(=O)NC(Cc2ccc(-c3ccccc3C)nc2)C(N)=O)cc1` (single isomer, unassigned) [Seq. ID. No. 34, H-(ACP)-QGT-(α-Me-2F-Phe)-TSD-Bip(OMe)-Bip(Pyr)], the blood glucose level by setting is: (10 nM/kg, i.p, 0 min) 180 ± 4.2; (10 nM/kg, i.p, 30 min) 113 ± 3.2; (10 nM/kg, i.p, 60 min) 112 ± 2.4; (10 nM/kg, i.p, 120 min) 110 ± 1.9; (2 μM/kg, oral, 0 min) 184 ± 2.2; (2 μM/kg, oral, 30 min) 118 ± 3.3. Also, the blood glucose level is, setting by setting: (2 μM/kg, oral, 60 min) 112 ± 4.4; (2 μM/kg, oral, 120 min) 110 ± 2.9.

For `CCc1cc(OC)ccc1-c1ccc(CC(NC(=O)[C@H](CC(=O)O)NC(=O)[C@H](CO)NC(=O)[C@@H](NC(=O)C(C)(Cc2ccccc2F)NC(=O)[C@@H](NC(=O)CNC(=O)[C@H](CCC(N)=O)NC(=O)C2(NC(=O)[C@@H](N)Cc3c[nH]cn3)CC2)[C@@H](C)O)[C@@H](C)O)C(=O)NC(Cc2ccc(-c3ccccc3F)cc2)C(N)=O)cc1` (single isomer, unassigned) [Seq. ID. No. 35, H-(ACP)-QGT-(α-Me-2F-Phe)-TSD-Bip(OMe)-Bip(2F)], the blood glucose level by setting is: (10 nM/kg, i.p, 0 min) 182 ± 4.1; (10 nM/kg, i.p, 30 min) 112 ± 3.1; (10 nM/kg, i.p, 60 min) 113 ± 2.6; (10 nM/kg, i.p, 120 min) 111 ± 1.8; (2 μM/kg, oral, 0 min) 183 ± 2.1; (2 μM/kg, oral, 30 min) 118 ± 3.4. Moreover, the blood glucose level amounted to 113 ± 4.6 (2 μM/kg, oral, 60 min) and 111 ± 2.8 (2 μM/kg, oral, 120 min).

As for `CCc1cc(OC)ccc1-c1ccc(CC(NC(=O)[C@H](CC(=O)O)NC(=O)[C@H](CO)NC(=O)[C@@H](NC(=O)C(C)(Cc2ccccc2F)NC(=O)[C@@H](NC(=O)CNC(=O)[C@H](CCC(N)=O)NC(=O)C2(NC(=O)[C@@H](N)Cc3c[nH]cn3)CC2)[C@@H](C)O)[C@@H](C)O)C(=O)NC(Cc2ccc(-c3ccccc3C(F)(F)F)cc2)C(N)=O)cc1` (single isomer, unassigned) [Seq. ID. No. 36, H-(ACP)-QGT-(α-Me-2F-Phe)-TSD-Bip(OMe)-Bip(2CF3)], the blood glucose level stood at 180 ± 2.8 (10 nM/kg, i.p, 0 min); 110 ± 3.6 (10 nM/kg, i.p, 30 min); 112 ± 2.3 (10 nM/kg, i.p, 60 min); 112 ± 1.6 (10 nM/kg, i.p, 120 min); 183 ± 2.3 (2 μM/kg, oral, 0 min); 119 ± 3.0 (2 μM/kg, oral, 30 min). This compound also gave a blood glucose level (2 μM/kg, oral, 60 min) of 112 ± 4.3 and a blood glucose level (2 μM/kg, oral, 120 min) of 109 ± 2.6.
